Measured values taken from US7361675B2, “1,2,4-thiadiazole compounds and use thereof” (Sumitomo Chemical Company Limited, priority 2002, dated 2008).

Experiments:
[1] = system: western flower thrips (Frankliniella occidentalis); test: Test Example 2: western flower thrips damage on treated cucumber leaf; format: in vivo; conditions: 500 ppm, 20 ml/cup on cucumber, cut first foliage leaf, 30 larvae, after seven days
Description: A preparation prepared from each of the compound (1) of the present invention and a comparative compound (A) according to Formulation Example 5 was diluted with water so that the concentration of the compound of the present invention became 500 ppm to obtain a test scattering solution. On the other hand, soil was filled into polyethylene cups, cucumber was planted in each cup, and grown until its first foliage leaves developed. The aforementioned test scattering solution was scattered on the cucumber at a ratio of 20 ml/cup, and the scattered solution on the surface of the leaf was dried. The first foliage leaf was cut off, placed on a filter (diameter 70 mm) impregnated with water in a polyethylene cup (diameter 110 mm), 30 larvae of western flower thrips (Frankliniella occidentalis) were released thereon, and the polyethylene cup was closed with a lid. After seven days, a damage degree of the cucumber leaf by western flower thrips (Frankliniella occidentalis) was examined.

[2] = system: silverleaf whitefly (Bemisia argentifolii); test: Test Example 3: silverleaf whitefly on cabbage (foliar scattering); format: in vivo; conditions: 168 h, 20 ml/cup on cabbage 8 days after egg laying, seven days after scattering, read-out: insecticidal rate
Description: A preparation prepared from each of the compounds (1), (2), (5), (6), (8), (9), (16), (77) and (78) of the present invention and the comparative compound (A) according to Formulation Example 5 was diluted with water so that the concentration of the compound of the present invention became 500 ppm to obtain a test scattering solution.
On the other hand, soil was filled in polyethylene cups, cabbage was planted in each cup, and grown until its first foliage leaves developed, and leaves other than a first foliage leaves were removed. About 200 imagoes of silverleaf whitefly (Bemisia argentifolii) were released on this cabbage for about 24 hours, and had them lay eggs on the cabbage first foliage leaf.
The thus obtained cabbage on which about 80 to 100 eggs of silverleaf whitefly (Bemisia argentifolii) were laid was allowed to stand in a greenhouse for 8 days, and the aforementioned test scattering solution was scattered at a ratio of 20 ml/cup. Seven days after scattering, the number of alive insects was examined, and an insecticidal rate was calculated.

C#CCOc1nnc(-c2ccccc2)s1 [comparative compound (A), reference compound]
damage area rate by western flower thrips in the treated leaf [1]: ≥ 20% | pest or weed control at 500 ppm [2]: ≤ 30%

C#CCOc1nsc(-c2ccccc2)n1 [compound (1), 5-phenyl-3-propargyloxy-1,2,4-thiadiazole]
damage area rate by western flower thrips in the treated leaf [1]: ≤ 5% | pest or weed control at 500 ppm [2]: ≥ 90% | melting point: 66.9 °C

CC#CCOc1nsc(-c2ccccc2)n1 [compound (2), 5-phenyl-3-(2-butynyloxy)-1,2,4-thiadiazole]
pest or weed control at 500 ppm [2]: ≥ 90% | melting point: 70.3 °C

CC#CCOc1nsc(-c2ccccc2F)n1 [compound (5), 5-(2-fluorophenyl)-3-(2-butynyloxy)-1,2,4-thiadiazole]
pest or weed control at 500 ppm [2]: ≥ 90%

CC#CCOc1nsc(-c2cccc(F)c2)n1 [compound (6), 5-(3-fluorophenyl)-3-(2-butynyloxy)-1,2,4-thiadiazole]
pest or weed control at 500 ppm [2]: ≥ 90% | melting point: 68.7 °C

CC#CCOc1nsc(-c2ccccc2Cl)n1 [compound (8), 5-(2-chlorophenyl)-3-(2-butynyloxy)-1,2,4-thiadiazole]
pest or weed control at 500 ppm [2]: ≥ 90%

CC#CCOc1nsc(-c2cccc(Cl)c2)n1 [compound (9), 5-(3-chlorophenyl)-3-(2-butynyloxy)-1,2,4-thiadiazole]
pest or weed control at 500 ppm [2]: ≥ 90%

CC#CCOc1nsc(-c2cccc(F)c2F)n1 [compound (16), 5-(2,3-difluorophenyl)-3-(2-butynyloxy)-1,2,4-thiadiazole]
pest or weed control at 500 ppm [2]: ≥ 90%

CCC#CCOc1nsc(-c2ccccc2Cl)n1 [compound (77), 5-(2-chlorophenyl)-3-(2-pentynyloxy)-1,2,4-thiadiazole]
pest or weed control at 500 ppm [2]: ≥ 90%

CCC#CCOc1nsc(-c2cccc(Cl)c2)n1 [compound (78), 5-(3-chlorophenyl)-3-(2-pentynyloxy)-1,2,4-thiadiazole]
pest or weed control at 500 ppm [2]: ≥ 90%
